{
  "source": "patent US10238738B2",
  "about": "“Methods of modulating immune system responses” (priority 2014, dated 2019)",
  "test_system": "primary human macrophages, neutrophils, and immortalized epithelial cells",
  "assay": "Cytokine production in primary human cells (ELISA)",
  "type": "cell-based",
  "experimental": "Relative expression was calculated using the 2^−ΔΔCT method following normalization of target gene abundance to GAPDH. Quantitative measurements of cytokines were performed using ELISA kits form R&D Systems (KC, IL-23, IFN-β) or BD Biosciences (IL-1β, IL-8, IL-6, IL-12p70, TNF-α). Nuclear extracts were prepared from Jurkat T cells and NF-κB subunit binding was determined using the TransAM® Transcription Factor ELISA (Active Motif). Microarray\nWhole blood was taken by venipuncture from human volunteers. Peripheral blood mononuclear cells (PBMCs) were isolated using Ficoll-Paque (GE). PBMCs (2×10^6 cells/ml) were incubated for one hour at 37° C. to allow monocytes to adhere. Following removal of non-adherent cells, monocytes were re-suspended and incubated for 7 days in RPMI 1640, 10% FBS, 1% glutamax, 1% penicillin streptomycin, containing 100 ng/ml recombinant human Granulocyte macrophage-colony stimulating factor (GM-CSF) (BioLegend). For infections, cells were detached using accutase (Sigma) and seeded at 2×10^5 cells/well in 48 well plates without antibiotics. Human neutrophils were isolated from citrated whole blood taken from healthy volunteers by venipuncture using Ficoll-Paque (GE) as described previously (McCaw et al., 2003).",
  "data": [
    {"smiles": "O=P(O)(O)OC[C@@H](O)[C@H]1OC(OP(=O)(O)O)[C@@H](O)[C@@H](O)[C@@H]1O", "note": "(stereo partly drawn) [HBP, D-glycerol-D-manno-heptose-1,7-bisphosphate]", "values": [
      {"measurement": "IL-8, IL-6 and TNFα production", "setting": "24 hr, FIG. 8a-c", "result": "induced IL-8, IL-6, and TNFα production"},
      {"measurement": "Th17 polarizing cytokines IL-6 and IL-23", "setting": "primary human macrophages", "result": "induced significant amounts"}
    ]}
  ]
}
